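Where inhibition never reached the appropriate level, the endpoint shown equals the highest concentration tested. Otherwise, values were interpolated linearly from a five-concentration, 48-hour dose response in 96-well plates. TGI: concentration producing complete growth inhibition.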
Key:
Experiment in all cases: inhibition of tumour cell growth, NCI panel, 48 h
ACHN renal = test system: ACHN renal
NCI-H23 lung = test system: NCI-H23 lung
SN12C renal = test system: SN12C renal
MALME-3M melanoma = test system: MALME-3M melanoma
OVCAR-8 ovarian = test system: OVCAR-8 ovarian
OVCAR-4 ovarian = test system: OVCAR-4 ovarian
UACC-62 melanoma = test system: UACC-62 melanoma
DMS 273 small cell lung = test system: DMS 273 small cell lung
786-0 renal = test system: 786-0 renal
HCT-15 colon = test system: HCT-15 colon
XF 498 CNS = test system: XF 498 CNS
KM12 colon = test system: KM12 colon
M14 melanoma = test system: M14 melanoma
DMS 114 small cell lung = test system: DMS 114 small cell lung
SF-268 CNS = test system: SF-268 CNS
HL-60(TB) leukemia = test system: HL-60(TB) leukemia
SF-295 CNS = test system: SF-295 CNS
SNB-75 CNS = test system: SNB-75 CNS
OVCAR-5 ovarian = test system: OVCAR-5 ovarian
LOX IMVI melanoma = test system: LOX IMVI melanoma
DLD-1 colon = test system: DLD-1 colon
CAKI-1 renal = test system: CAKI-1 renal
UACC-257 melanoma = test system: UACC-257 melanoma
KM20L2 colon = test system: KM20L2 colon
A498 renal = test system: A498 renal
SNB-19 CNS = test system: SNB-19 CNS
EKVX NSCLC = test system: EKVX NSCLC
UO-31 renal = test system: UO-31 renal
RXF 393 renal = test system: RXF 393 renal
SF-539 CNS = test system: SF-539 CNS
COLO 205 colon = test system: COLO 205 colon
RPMI-8226 leukemia = test system: RPMI-8226 leukemia
CCRF-CEM leukemia = test system: CCRF-CEM leukemia
MOLT-4 leukemia = test system: MOLT-4 leukemia
IGROV1 ovarian = test system: IGROV1 ovarian
SK-OV-3 ovarian = test system: SK-OV-3 ovarian
NCI-H460 lung = test system: NCI-H460 lung
RXF-631 renal = test system: RXF-631 renal
K-562 leukemia = test system: K-562 leukemia
A549 NSCLC = test system: A549 NSCLC
NCI-H522 lung = test system: NCI-H522 lung
SK-MEL-28 melanoma = test system: SK-MEL-28 melanoma
SK-MEL-5 melanoma = test system: SK-MEL-5 melanoma
SK-MEL-2 melanoma = test system: SK-MEL-2 melanoma
TK-10 renal = test system: TK-10 renal
HT29 colon = test system: HT29 colon
SNB-78 CNS = test system: SNB-78 CNS
LXFL 529 NSCLC = test system: LXFL 529 NSCLC
U251 CNS = test system: U251 CNS
SW-620 colon = test system: SW-620 colon

In the case of `c1ccc2c(c1)c1ccccc1c1n[se]nc21`, the TGI (ACHN renal) is reported as > 100 µM, the TGI (NCI-H23 lung) is reported as > 100 µM and the TGI (SN12C renal) is reported as > 100 µM. The TGI (MALME-3M melanoma) was > 100 µM, the TGI (OVCAR-8 ovarian) was > 100 µM and the TGI (OVCAR-4 ovarian) was > 100 µM. The TGI (UACC-62 melanoma) was > 100 µM, the TGI (DMS 273 small cell lung) was > 100 µM and the TGI (786-0 renal) was > 100 µM. For the same molecule, the TGI (HCT-15 colon) was > 100 µM, the TGI (XF 498 CNS) was 77.2 µM and the TGI (KM12 colon) was > 100 µM. For the same molecule, the TGI (M14 melanoma) was > 100 µM, the TGI (DMS 114 small cell lung) was > 100 µM and the TGI (SF-268 CNS) was > 100 µM. For the same molecule, the TGI (HL-60(TB) leukemia) was > 100 µM, the TGI (SF-295 CNS) was > 100 µM and the TGI (SNB-75 CNS) was 59 µM. The TGI (OVCAR-5 ovarian) was > 100 µM, the TGI (LOX IMVI melanoma) was > 100 µM and the TGI (DLD-1 colon) was > 100 µM. The TGI (CAKI-1 renal) was > 100 µM, the TGI (UACC-257 melanoma) was > 100 µM and the TGI (KM20L2 colon) was > 100 µM. For the same molecule, the TGI (A498 renal) was 67.1 µM, the TGI (SNB-19 CNS) was > 100 µM and the TGI (EKVX NSCLC) was > 100 µM. For the same molecule, the TGI (UO-31 renal) was > 100 µM, the TGI (RXF 393 renal) was > 100 µM and the TGI (SF-539 CNS) was 92.2 µM. The TGI (COLO 205 colon) was > 100 µM, the TGI (RPMI-8226 leukemia) was > 100 µM and the TGI (CCRF-CEM leukemia) was > 100 µM. For the same molecule, the TGI (MOLT-4 leukemia) was > 100 µM, the TGI (IGROV1 ovarian) was > 100 µM and the TGI (SK-OV-3 ovarian) was 64.3 µM. For the same molecule, the TGI (NCI-H460 lung) was > 100 µM, the TGI (RXF-631 renal) was > 100 µM and the TGI (K-562 leukemia) was > 100 µM. The TGI (A549 NSCLC) was > 100 µM, the TGI (NCI-H522 lung) was > 100 µM and the TGI (SK-MEL-28 melanoma) was > 100 µM. The TGI (SK-MEL-5 melanoma) was > 100 µM, the TGI (SK-MEL-2 melanoma) was > 100 µM and the TGI (TK-10 renal) was > 100 µM. For the same molecule, the TGI (HT29 colon) was > 100 µM, the TGI (SNB-78 CNS) was > 100 µM and the TGI (LXFL 529 NSCLC) was 48.6 µM. For the same molecule, the TGI (U251 CNS) was > 100 µM and the TGI (SW-620 colon) was > 100 µM.
